This note sets out measurements from ChEMBL document CHEMBL3108682, “Piperazine oxadiazole inhibitors of acetyl-CoA carboxylase” (J Med Chem, 2013).

Holding throughout (type): ADME, organism-based
Data set [1] deals with Plasma. The data set can be described thus: Fraction unbound in C57BL6 mouse plasma at 25 mg/kg, po after 8 hrs. Details: dose 25 mg/kg, route oral. To be noted: in vivo.
Data set [2] concerns Plasma. The data set can be described thus: Fraction unbound in C57BL6 mouse plasma at 100 mg/kg, po. Details: dose 100 mg/kg, route oral. As to conditions: in vivo.
Data set [3] relates to Plasma. The data set can be described thus: Fraction unbound in C57BL6 mouse plasma at 15 mg/kg, po. Also noted: dose 15 mg/kg, route oral. As to conditions: in vivo.
The subject of data set [4] is Plasma. Kind of data set: Fraction unbound in C57BL6 mouse plasma at 25 mg/kg, po after 4 hrs. Also noted: dose 25 mg/kg, route oral. As to conditions: in vivo.
Data set [5] is described as follows: Oral bioavailability in C57BL6 mouse at 5 mg/kg. To be noted: in vivo.
The subject of data set [6] is Plasma. Kind of data set: Fraction unbound in C57BL6 mouse plasma at 25 mg/kg, po after 12 hrs. To be noted: in vivo. Details: dose 25 mg/kg, route oral.
Data set [7] relates to Plasma. The data set can be described thus: Fraction unbound in C57BL6 mouse plasma at 50 mg/kg, po. Details: dose 50 mg/kg, route oral. To be noted: in vivo.
Data set [8] is described as follows: Cmax in Sprague-Dawley rat at 5 mg/kg, po. Also noted: dose 5 mg/kg, route oral. As to conditions: in vivo.
Data set [9] relates to Plasma. The data set can be described thus: Fraction unbound in C57BL6 mouse plasma at 25 mg/kg, po after 1 hr. Details: dose 25 mg/kg, route oral. As to conditions: in vivo.
Data set [10] in a line: Cmax in C57BL6 mouse at 5 mg/kg, po. To be noted: in vivo. Details: dose 5 mg/kg, route oral.
Data set [11] can be described thus: Volume of distribution at steady state in Sprague-Dawley rat at 2 mg/kg, iv. Also noted: dose 2 mg/kg, route intravenous. To be noted: in vivo, read-out: Vdss.
Data set [12] concerns Plasma. Kind of data set: Fraction unbound in C57BL6 mouse plasma at 25 mg/kg, po. Details: dose 25 mg/kg, route oral. To be noted: in vivo.
Data set [13] relates to Plasma. The data set can be described thus: Fraction unbound in C57BL6 mouse plasma at 35 mg/kg, po. Details: dose 35 mg/kg, route oral. As to conditions: in vivo.
Data set [14] can be described thus: Volume of distribution at steady state in C57BL6 mouse at 2 mg/kg, iv. Details: dose 2 mg/kg, route intravenous. To be noted: in vivo, read-out: Vdss.
Data set [15] is described as follows: Oral bioavailability in Sprague-Dawley rat at 5 mg/kg. As to conditions: in vivo.
The nature of data set [16]: AUC (0 to 24 hrs) in Sprague-Dawley rat at 5 mg/kg, po. Details: time < 24 hr, dose 5 mg/kg, route oral. To be noted: plasma.

The structures appear in SMILES notation.

As a reminder, the bioavailability is the share of a dose that reaches the circulation, judged against a reference dose that is usually intravenous. A high value points to good availability. Broadly, the Cmax is the maximum level reached in the sampled fluid or tissue. The AUC(0-t) is the area under the concentration-time curve up to a stated or last time point. Higher therefore signals high exposure.

As to `CCOc1ccc(N2CCN(c3noc(C4(NC(C)=O)CCC4)n3)[C@@H](C)C2)c(C)c1`, the “Cp(f)” value was determined as 882 nM in data set [1]; 1482 nM in data set [2]; 95 nM in data set [3]; 1142 nM in data set [4]; 498 nM in data set [6]; 988 nM in data set [7]. Also, the results for the “Cp(f)” value in data set [9], in [12] and in [13] were 1165 nM, 708 nM and 618 nM, respectively. In addition, the bioavailability in [5] stood at 46%; in data set [15], 34%. The Cmax in [8] is 1200 nM; in data set [10], 5800 nM. The Vd in [11] worked out at 1.8 L/kg; in data set [14], 0.98 L/kg.

In the case of `CCOc1ccc(N2CCN(c3noc(CC)n3)[C@@H](C)C2)c(C)c1`, in data set [8], the Cmax was 380 nM. The molecule also displayed an AUC(0-t) at 24 h in [16] of 291 ng·h/mL. Further, in [11], the Vd stood at 12.8 L/kg. For the same molecule, in data set [15], the bioavailability was 17%.
